# From US12091426B2, “Bifunctional degraders of hematopoietic progenitor kinase and therapeutic uses thereof” (Nurix Therapeutics, Inc., priority 2021, dated 2024)
# Molecular target: T1, HPK1 (Homo sapiens, UniProt Q92918)
# T1 construct: A HiBiT tag was introduced by CRISPR on the N terminus of HPK1 in Jurkat cells; host or cells: Jurkat cells (ATCC TIB-152), monoclonal line with CRISPR knock-in of HiBiT at the endogenous HPK1 locus
# Assay: HPK1 Cellular HiBit Degradation Assay
# Type: cell-based
# Settings: HiBiT HPK1 Jurkat cells, 24 hrs; for DC50: concentration at which 50% of HPK1 was remaining, read-out: DC50 Category; for Dmax: Jurkat, read-out: Dmax Category
# Procedure, shortened: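 Jurkat cells with CRISPR N-terminal HiBiT-tagged endogenous HPK1 treated 24 h at 37 °C with 11-point, 3.16-fold dilutions (10 uM to 0.1 nM final). HiBiT lytic luminescence gives % HPK1 remaining versus DMSO, with parental cells as background. Four-parameter fit yields DC50; Dmax = 100 minus lowest % remaining.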
# [1] = maximum degradation vs DMSO vehicle control
# T1 sequence (Q92918 whole entry): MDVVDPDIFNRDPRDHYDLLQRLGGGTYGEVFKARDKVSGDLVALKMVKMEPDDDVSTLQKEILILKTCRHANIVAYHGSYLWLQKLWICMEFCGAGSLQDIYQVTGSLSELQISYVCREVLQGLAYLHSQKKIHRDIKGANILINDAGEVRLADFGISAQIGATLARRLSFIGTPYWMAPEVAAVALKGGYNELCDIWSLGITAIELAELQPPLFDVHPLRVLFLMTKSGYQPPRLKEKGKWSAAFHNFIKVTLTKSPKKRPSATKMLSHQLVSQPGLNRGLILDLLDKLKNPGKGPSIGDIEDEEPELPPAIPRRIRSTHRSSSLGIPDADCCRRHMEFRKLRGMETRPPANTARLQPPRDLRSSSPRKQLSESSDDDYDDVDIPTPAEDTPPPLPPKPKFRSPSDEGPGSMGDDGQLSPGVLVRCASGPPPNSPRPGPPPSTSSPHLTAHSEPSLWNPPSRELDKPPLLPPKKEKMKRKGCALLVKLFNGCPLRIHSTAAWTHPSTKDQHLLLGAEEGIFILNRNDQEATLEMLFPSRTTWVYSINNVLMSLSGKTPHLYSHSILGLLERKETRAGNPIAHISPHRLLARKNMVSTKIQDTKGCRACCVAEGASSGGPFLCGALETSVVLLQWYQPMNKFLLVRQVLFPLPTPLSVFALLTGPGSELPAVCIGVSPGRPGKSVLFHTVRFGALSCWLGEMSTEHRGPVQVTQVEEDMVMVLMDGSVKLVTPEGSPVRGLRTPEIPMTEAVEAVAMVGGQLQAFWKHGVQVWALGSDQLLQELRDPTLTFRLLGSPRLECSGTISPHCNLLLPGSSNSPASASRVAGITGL
SMILES,DC50 [µM],Dmax [1] [%],Dmax Category [1]
"CC(C)n1cnc2cc(-c3ccc4c(c3)N([C@H]3C[C@@H](N5CCCCC5)C3)C(=O)C43CCN(C(=O)c4ccc(C(=O)N5CCN(c6ccc7c(c6)C(=O)N(C6CCC(=O)NC6=O)C7=O)CC5)cc4)CC3)nc(Nc3ccncc3F)c21 (mixture of isomers) [Example 42, 2-[(3RS)-2,6-dioxopiperidin-3-yl]-5-(4-{4-[(6-{4-[(3-Fluoropyridin-4-yl)amino]-3-(propan-2-yl)-3H-imidazo[4,5-c]pyridin-6-yl}-2-oxo-1-[(1S,3S)-3-(piperidin-1-yl)cyclobutyl]-1,2-dihydrospiro[indole-3,4′-piperidin]-1′-yl)carbonyl]benzoyl}piperazin-1-yl)-2,3-dihydro-1H-isoindole-1,3-dione]",0.5 to 1,50 to 70,
"CC(C)n1cnc2cc(-c3ccc4c(c3)N([C@H]3C[C@@H](N5CCCCC5)C3)C(=O)C43CCN(C(=O)c4ccc(C(=O)NC5CCN(c6ccc7c(c6)C(=O)N(C6CCC(=O)NC6=O)C7=O)CC5)cc4)CC3)nc(NC3CC3)c21 (mixture of isomers) [Example 43, 4-({6-[4-(cyclopropylamino)-3-(propan-2-yl)-3H-imidazo[4,5-c]pyridin-6-yl]-2-oxo-1-[(1S,3S)-3-(piperidin-1-yl)cyclobutyl]-1,2-dihydrospiro[indole-3,4′-piperidin]-1′-yl}carbonyl)-N-(1-{2-[(3RS)-2,6-dioxopiperidin-3-yl]-1,3-dioxo-2,3-dihydro-1H-isoindol-5-yl}piperidin-4-yl)benzamide]",0.5 to 1,50 to 70,
CC(C)n1cnc2cc(-c3ccc4c(c3)N([C@H]3C[C@@H](N5CCCCC5)C3)C(=O)C43CCN(C(=O)c4ccc(C(=O)NC5CCN(c6ccc7c(c6)C(=O)N(C6CCC(=O)NC6=O)C7=O)CC5)cc4)CC3)nc(NC3CC3)c21 (mixture of isomers) [Example 44],0.5 to 1,,B (B: >70%-<85%)
"CC(C)n1cnc2cc(-c3ccc4c(c3)N([C@H]3C[C@@H](N5CCCCC5)C3)C(=O)C43CCN(C(=O)c4ccc(C(=O)N5CCN(c6ccc7c(c6)C(=O)N(C6CCC(=O)NC6=O)C7=O)CC5)nc4)CC3)nc(Nc3ccccc3F)c21 (mixture of isomers) [Example 45, 2-[(3RS)-2,6-dioxopiperidin-3-yl]-5-(4-{5-[(6-{4-[(2-fluorophenyl)amino]-3-(propan-2-yl)-3H-imidazo[4,5-c]pyridin-6-yl}-2-oxo-1-[(1S,3S)-3-(piperidin-1-yl)cyclobutyl]-1,2-dihydrospiro[indole-3,4′-piperidin]-1′-yl)carbonyl]pyridine-2-carbonyl}piperazin-1-yl)-2,3-dihydro-1H-isoindole-1,3-dione]",0.1 to 0.5,70 to 85,
CC(C)n1cnc2cc(-c3ccc4c(c3)N([C@H]3C[C@@H](N5CCCCC5)C3)C(=O)C43CCN(C(=O)C4CCN(C[C@H]5CC[C@H](C(=O)N6CCc7cc(C8CCC(=O)NC8=O)ccc7C6)CC5)CC4)CC3)nc(Nc3ccccc3F)c21 (mixture of isomers) [Example 46],0.1 to 0.5,> 85,
"CC(C)n1cnc2cc(-c3ccc4c(c3)N([C@H]3C[C@@H](N5CCCCC5)C3)C(=O)C43CCN(C(=O)C4CCN(C(=O)[C@@H]5CCN(c6ccc(C7CCC(=O)NC7=O)cn6)C5)CC4)CC3)nc(Nc3ccccc3F)c21 (mixture of isomers) [Example 47, (3RS)-3-{6-[(3R)-3-{4-[(6-{4-[(2-fluorophenyl)amino]-3-(propan-2-yl)-3H-imidazo[4,5-c]pyridin-6-yl}-2-oxo-1-[(1S,3S)-3-(piperidin-1-yl)cyclobutyl]-1,2-dihydrospiro[indole-3,4′-piperidin]-1′-yl)carbonyl]piperidine-1-carbonyl}pyrrolidin-1-yl]pyridin-3-yl}piperidine-2,6-dione]",0.1 to 0.5,50 to 70,
"CC(C)n1cnc2cc(-c3ccc4c(c3)N([C@H]3C[C@@H](N5CCCCC5)C3)C(=O)C43CCN(C(=O)C4CCN(C(=O)[C@H]5CC[C@H](C(=O)N6CCc7ccc(C8CCC(=O)NC8=O)cc7C6)CC5)CC4)CC3)nc(Nc3ccccc3F)c21 (mixture of isomers) [Example 50, (3RS)-3-{2-[(1R,4R)-4-{4-[(6-{4-[(2-fluorophenyl)amino]-3-(propan-2-yl)-3H-imidazo[4,5-c]pyridin-6-yl}-2-oxo-1-[(1S,3S)-3-(piperidin-1-yl)cyclobutyl]-1,2-dihydrospiro[indole-3,4′-piperidin]-1′-yl)carbonyl]piperidine-1-carbonyl}cyclohexanecarbonyl]-1,2,3,4-tetrahydroisoquinolin-7-yl}piperidine-2,6-dione]",< 0.1,70 to 85,
"CC(C)n1cnc2cc(-c3ccc4c(c3)N([C@H]3C[C@@H](N5CCCCC5)C3)C(=O)C43CCN(C(=O)C4CCN(C(=O)[C@H]5CC[C@H](C(=O)N6CCCc7cc(C8CCC(=O)NC8=O)ccc76)CC5)CC4)CC3)nc(Nc3ccccc3F)c21 (mixture of isomers) [Example 51, (3RS)-3-{1-[(1R,4R)-4-{4-[(6-{4-[(2-fluorophenyl)amino]-3-(propan-2-yl)-3H-imidazo[4,5-c]pyridin-6-yl}-2-oxo-1-[(1S,3S)-3-(piperidin-1-yl)cyclobutyl]-1,2-dihydrospiro[indole-3,4′-piperidin]-1′-yl)carbonyl]piperidine-1-carbonyl}cyclohexanecarbonyl]-1,2,3,4-tetrahydroquinolin-6-yl}piperidine-2,6-dione]",< 0.1,70 to 85,
"CC(C)n1cnc2cc(-c3ccc4c(c3)N([C@H]3C[C@@H](N5CCCCC5)C3)C(=O)C43CCN(C(=O)C4CCN(C(=O)[C@H]5CC[C@H](Nc6cc(C7CCC(=O)NC7=O)ccn6)CC5)CC4)CC3)nc(Nc3ccccc3F)c21 (mixture of isomers) [Example 52, (3RS)-3-(2-{[(1R,4R)-4-{4-[(6-{4-[(2-fluorophenyl)amino]-3-(propan-2-yl)-3H-imidazo[4,5-c]pyridin-6-yl}-2-oxo-1-[(1S,3S)-3-(piperidin-1-yl)cyclobutyl]-1,2-dihydrospiro[indole-3,4′-piperidin]-1′-yl)carbonyl]piperidine-1-carbonyl}cyclohexyl]amino}pyridin-4-yl)piperidine-2,6-dione]",0.5 to 1,50 to 70,
"CC(C)n1cnc2cc(-c3ccc4c(c3)N([C@H]3C[C@@H](N5CCCCC5)C3)C(=O)C43CCN(C(=O)C4CCN(C(=O)[C@H]5CC[C@H](Nc6ccc(C7CCC(=O)NC7=O)cc6)CC5)CC4)CC3)nc(NC3CC3)c21 (mixture of isomers) [Example 53, (3RS)-3-(4-{[(1R,4R)-4-[4-({6-[4-(cyclopropylamino)-3-(propan-2-yl)-3H-imidazo[4,5-c]pyridin-6-yl]-2-oxo-1-[(1S,3S)-3-(piperidin-1-yl)cyclobutyl]-1,2-dihydrospiro[indole-3,4′-piperidin]-1′-yl}carbonyl)piperidine-1-carbonyl]cyclohexyl]amino}phenyl)piperidine-2,6-dione]",0.1 to 0.5,50 to 70,
"CC(C)n1cnc2cc(-c3ccc4c(c3)N([C@H]3C[C@@H](N5CCCCC5)C3)C(=O)C43CCN(C(=O)C4CCN(C(=O)[C@H]5CC[C@H](Nc6ccc(C7CCC(=O)NC7=O)cc6)CC5)CC4)CC3)nc(Nc3ccccc3F)c21 (mixture of isomers) [Example 54, (3RS)-3-(4-{[(1R,4R)-4-{4-[(6-{4-[(2-fluorophenyl)amino]-3-(propan-2-yl)-3H-imidazo[4,5-c]pyridin-6-yl}-2-oxo-1-[(1S,3S)-3-(piperidin-1-yl)cyclobutyl]-1,2-dihydrospiro[indole-3,4′-piperidin]-1′-yl)carbonyl]piperidine-1-carbonyl}cyclohexyl]amino}phenyl)piperidine-2,6-dione]",< 0.1,70 to 85,
"CC(C)n1cnc2cc(-c3ccc4c(c3)N([C@H]3C[C@@H](N5CCCCC5)C3)C(=O)C43CCN(C(=O)C4CCN(C(=O)[C@H]5CC[C@H](Nc6ccc(C7CCC(=O)NC7=O)cc6)CC5)CC4)CC3)nc(Nc3ccncc3F)c21 (mixture of isomers) [Example 55, (3RS)-3-(4-{[(1R,4R)-4-{4-[(6-{4-[(3-Fluoropyridin-4-yl)amino]-3-(propan-2-yl)-3H-imidazo[4,5-c]pyridin-6-yl}-2-oxo-1-[(1S,3S)-3-(piperidin-1-yl)cyclobutyl]-1,2-dihydrospiro[indole-3,4′-piperidin]-1′-yl)carbonyl]piperidine-1-carbonyl}cyclohexyl]amino}phenyl)piperidine-2,6-dione]",0.1 to 0.5,50 to 70,
"CC(C)n1cnc2cc(-c3ccc4c(c3)N([C@H]3C[C@@H](N5CCCCC5)C3)C(=O)C43CCN(C(=O)C4CCN(C(=O)[C@H]5CC[C@H](Nc6cccc7c6C(=O)N(C6CCC(=O)NC6=O)C7=O)CC5)CC4)CC3)nc(NC3CC3)c21 (mixture of isomers) [Example 56, 2-[(3RS)-2,6-dioxopiperidin-3-yl]-4-{[(1R,4R)-4-[4-({6-[4-(cyclopropylamino)-3-(propan-2-yl)-3H-imidazo[4,5-c]pyridin-6-yl]-2-oxo-1-[(1S,3S)-3-(piperidin-1-yl)cyclobutyl]-1,2-dihydrospiro[indole-3,4′-piperidin]-1′-yl}carbonyl)piperidine-1-carbonyl]cyclohexyl]amino}-2,3-dihydro-1H-isoindole-1,3-dione]",0.5 to 1,50 to 70,
"CC(C)n1cnc2cc(-c3ccc4c(c3)N([C@H]3C[C@@H](N5CCCCC5)C3)C(=O)C43CCN(C(=O)C4CCN(C(=O)[C@H]5CC[C@H](Nc6cccc7c6C(=O)N(C6CCC(=O)NC6=O)C7=O)CC5)CC4)CC3)nc(Nc3ccccc3F)c21 (mixture of isomers) [Example 57, 2-[(3RS)-2,6-dioxopiperidin-3-yl]-4-{[(1R,4R)-4-{4-[(6-{4-[(2-fluorophenyl)amino]-3-(propan-2-yl)-3H-imidazo[4,5-c]pyridin-6-yl}-2-oxo-1-[(1S,3S)-3-(piperidin-1-yl)cyclobutyl]-1,2-dihydrospiro[indole-3,4′-piperidin]-1′-yl)carbonyl]piperidine-1-carbonyl}cyclohexyl]amino}-2,3-dihydro-1H-isoindole-1,3-dione]",0.1 to 0.5,70 to 85,
